These results are taken from patent US5744600A, “Phosphonomethoxy carbocyclic nucleosides and nucleotides” (Institute of Organic Chemistry and Biochemistry of the …, priority 1994, dated 1998).

Series [1] has as its system Murine leukemia virus (MuLV). Put plainly: MuLV UV-XC plaque assay in SC-1 cells. The format is cell-based. The settings on record: SC1, Table II, racemic series, read-out: MuLV in vitro antiviral activity (IC50). As for the experimental part: The compounds were evaluated for antiviral activity against Murine leukemia virus (MuLV) strains using the UV-XC plaque assay (Rowe, et. al., Virology, 42:1136, 1970).
The MuLV strains were grown in fetal mouse cells, (SC-1) and used for antiviral tests using the UV-XC plaque assay. Briefly, SC-1 cells are grown as monolayers in 4-well tissue culture plates and inoculated with approximately 50-100 plaque forming units of MuLV in 0.5 ml of 5% EMEM containing 20 μg/ml DEAE/Dextran. After 1 hr. adsorption, the inoculum is removed and 5 ml of 5% EMEM containing three-fold dilutions of the appropriate drug are added. Five days later, the cultures are UV-irradiated with an ultraviolet lamp and rat XC sarcoma cells are added to the cultures. Three to four days after UV-irradiation, the cell cultures are stained with Giemsa stain and the plaques are counted. Antiviral activity is expressed in terms of the reduction in the mean number of UV-XC plaques counted in the drug treated, virus-infected cultures compared with mean number of plaques counted in untreated, virus-infected control cultures. IC50 values are calculated by determining the concentration of compound necessary to reduce the number of plaques by 50% compared to those in the virus control cultures.

Series [2] relates to herpes simplex virus Type 2 (HSV-2) [G strain]. Put plainly: HSV-2 plaque reduction assay in vero cells. The format is cell-based. As to conditions: Human alphaherpesvirus 2, Table II, racemic series, 48 hour incubation, read-out: HSV-2 in vitro antiviral activity (IC50). As for the experimental part:
(§1) The antiviral activity of compounds of the invention, against both herpes viruses and human immunodeficiency virus (HIV), are presented in Table II. In Table II, the numbers in parenthesis in the columns reporting HIV activity represent the TD50, that is, the dosage at which toxic effects are observed in 50% of the population of cells tested.
(§2) The compounds were evaluated for antiviral activity in vitro by a standard plaque reduction assay. Experiments were conducted with vero cells (African Green Monkey Kidney cells) infected with herpes simplex virus Type 1 (HSV-1) [BW^s strain, C. D. Sibrack, et al., Infect. Disc., 1982, 146, 673] and herpes simplex virus Type 2 (HSV-2) [G strain, obtained from American Tissue Culture Collection, Rockville, Md.] and with MRC-5 cells (human embryonic lung (diploid) cells) infected with human cytomegalovirus (HCMV) [AD169 strain, obtained from American Tissue Culture Collection, Rockville, Md].
(§3) Briefly, confluent cell monolayers in 24-well plates were infected with 3-50 plaque-forming units of virus in 100 μl of phosphate-buffered saline. After a 1 hour adsorption period, residual inoculum was replaced with 1 mL of the appropriate dilution of the test compound which had been freshly prepared in Eagle's minimal essential medium ("EMEM") containing 10% fetal bovine serum. After a 48 hour incubation period at 37° C. in a 5% CO2 atmosphere, cell monolayers were fixed and stained with Carbol fuchsin and plaques were counted. The antiviral potency of the compound was determined by IC50, the inhibitory concentration necessary to reduce the number of plaques by 50% of those in the virus control cultures.
A general note: Plaque reduction counts the foci of infection that form in a cell layer.

For series [3], the system named is herpes simplex virus Type 1 (HSV-1) [BW^s strain]. Description: HSV-1 plaque reduction assay in vero cells. In kind it is cell-based. As to conditions: Human alphaherpesvirus 1, Table II, racemic series, 48 hour incubation, read-out: HSV-1 in vitro antiviral activity (IC50). The procedure:
as §1, §2, §3

The subject of series [4] is human cytomegalovirus (HCMV) [AD169 strain]. Description: HCMV plaque reduction assay in MRC-5 cells. In kind it is cell-based. The settings on record: Human betaherpesvirus 5, AD169, MRC5, Table II, racemic series, 48 hour incubation, read-out: HCMV in vitro antiviral activity (IC50). As for the experimental part: as §2, §3
In series [5] the test system is HSV-1 (herpes simplex virus type 1, strain Schooler). Description: HSV-1 plaque inhibition assay in WI-38 cells. In kind it is cell-based. The settings on record: Human alphaherpesvirus 1, 96 h, 4 days. As for the experimental part:
(§4) Additional assays were performed in cell culture systems to determine the concentrations of compounds that are effective in preventing several kinds of viral infections. In Tables III and IV, the anti-HIV results using CEM cells were obtained using the same protocol described earlier. Figures in parenthesis represent the observed TD50 in the HIV screens indicated. Abbreviations:
(§5) HSV-1 (herpes simplex virus type 1, strain Schooler), HSV-2 (herpes simplex virus type 2, strain 186), VZV (varicella zoster virus, strain ELLEN), HCMV (human cytomegalovirus, strain AD 169 HIV (human immunodeficiency virus, strain HTLV-IIIB).
(§6) Virus was adsorbed to WI-38 cell culture monolayers in 6 well culture plates (Costar, Cambridge, Mass.) for 1 hour prior to addition of maintenance medium containing duplicate dilutions of the test compound. Inhibition of plaque development was evaluated on fixed and stained monolayers after 4 days incubation at 37° C. for HSV-1 and HSV-2, and after 5-7 days incubation at 37° C. for HCMV and VZV. ID50 values were determined from the drug concentration which conferred at least a 50% plaque reduction compared to virus controls.

The test system of series [6] is HCMV (human cytomegalovirus, strain AD 169). Put plainly: HCMV plaque inhibition assay in WI-38 cells. The format is cell-based. The settings on record: 5-7 days. As for the experimental part:
as §4, §5, §6

For series [7], the system named is HSV-2 (herpes simplex virus type 2, strain 186). Description: HSV-2 plaque inhibition assay in WI-38 cells. The format is cell-based. As to conditions: Human alphaherpesvirus 2, 96 h, 4 days. The procedure:
as §4, §5, §6

Series [8] deals with VZV (varicella zoster virus, strain ELLEN). Put plainly: VZV plaque inhibition assay in WI-38 cells. The format is cell-based. As to conditions: 5-7 days. The procedure: as §4, §5, §6
For series [9] the following is noted: Herdewijn, et al., J. Med. Chem. (1985); cited from earlier work.
Another series has as its system murine leukemia L1210. The settings on record: in vitro; Herdewijn, et al., J. Med. Chem. (1985); cited from earlier work.
The test system of series [10] is phytopathogenic bacteria and fungi. The settings on record: Kusaka, et al., J. Antibiotics, (1968); cited from earlier work.
The conditions of series [11]: Herdewijn, et al., J. Med. Chem. (1985); cited from earlier work. The source holds these as a separate data set.
[12] abbreviates: Table III, racemic series, read-out: HSV-1 in vitro antiviral activity (ID50).
The mark [13] stands for this setting: Human betaherpesvirus 5, Table III, racemic series, read-out: HCMV in vitro antiviral activity (ID50).
Where [14] appears, read: Table III, racemic series, read-out: HSV-2 in vitro antiviral activity (ID50).
[15] abbreviates: Human alphaherpesvirus 3, Table III, racemic series, read-out: VZV in vitro antiviral activity (ID50).

Values after ≈ are worked out from the molar mass of the structure shown. Read-outs that look alike come from different tables or passages of the source.

On to `Nc1nc2c(ncn2C2CC(OCP(=O)(O)O)C(O)C2O)c(=O)[nH]1` (centres unmarked), for which the IC50 in [1] is over 100 µg/mL; in series [2], over 100 µg/mL; in series [3], over 100 µg/mL; in [4], 4.5 µg/mL (≈ 12.5 µM).
`Nc1nc2c(ncn2C2CC(OCP(=O)(O)O)C(O)C2F)c(=O)[nH]1` (centres unmarked): the IC50 came out at 22 µg/mL (≈ 60.6 µM) in series [2] and 0.36 µg/mL (≈ 0.991 µM) in [4].
For the compound `Nc1ncnc2c1ncn2C1CC(OCP(=O)(O)O)C(O)C1O` (centres unmarked), the IC50 in series [1], in series [2] and in series [4] was over 100 µg/mL each time.
Take `Cc1cn(C2C=CC(OCP(=O)(O)O)C2)c(=O)[nH]c1=O` (centres unmarked): the IC50 in [2] was over 134 µg/mL; in series [3], over 140 µg/mL.
As for `Nc1nc2c(ncn2C2CC(OCP(=O)(O)O)CC2F)c(=O)[nH]1` (centres unmarked), the IC50 in [5] (setting [12]) lay in the range of 10 to 25 µg/mL (≈ 28.8 to 72 µM); in [6] (setting [13]), 10 to 25 µg/mL (≈ 28.8 to 72 µM); in series [7] (setting [14]), 10 to 25 µg/mL (≈ 28.8 to 72 µM); in series [8] (setting [15]), 10 to 33 µg/mL (≈ 28.8 to 95 µM).
As for `Nc1ncnc2c1ncn2[C@@H]1C[C@H](CO)[C@@H](O)[C@H]1O` [aristeromycin], the antiviral activity result in series [9] is “has antiviral activity”. The “activity against murine leukemia L1210” value in the series with murine leukemia L1210 is “active”. Besides, in [10], the “growth inhibitory activity against phytopathogenic bacteria and fungi” value is “growth inhibitory activity”. Besides, the cytotoxicity result in series [11] was “cytotoxic”.
On to `Nc1nc2c(ncn2C2C=CC(OCP(=O)(O)O)C2)c(=O)[nH]1` (centres unmarked) [drawing 15], for which the IC50 is 5.1 µg/mL (≈ 15.6 µM) in series [1], over 50 µg/mL in series [2], 13.5 µg/mL (≈ 41.3 µM) in series [3] and over 100 µg/mL in series [4].
For `Nc1ncnc2c1ncn2C1C=CC(OCP(=O)(O)O)C1` (centres unmarked) [drawing 24], in that order: 0.84 µg/mL (≈ 2.7 µM), over 82 µg/mL, over 116 µg/mL and over 100 µg/mL.
For the compound `Nc1ncnc2c1ncn2C1CC(OCP(=O)(O)O)C(O)C1F` (centres unmarked) [drawing 27], the results for the IC50 in series [2] and in [4] were over 100 µg/mL and 85 µg/mL (≈ 245 µM), respectively.
As to `Nc1nc2c(ncn2C2C=CC(OCP(=O)(O)O)C2)c(=O)[nH]1` (centres unmarked) [drawing 30], the IC50 in series [5] (setting [12]) was over 72 µg/mL; in series [6] (setting [13]), over 100 µg/mL; in [7] (setting [14]), over 72 µg/mL; in series [8] (setting [15]), 12 to 121 µg/mL (≈ 36.7 to 370 µM).
As for `Nc1ncnc2c1ncn2C1C=CC(OCP(=O)(O)O)C1` (centres unmarked) [drawing 33], the IC50 in [5] (setting [12]), in series [6] (setting [13]), in series [7] (setting [14]) and in series [8] (setting [15]) was over 100 µg/mL each time.
Take `Nc1ncnc2c1ncn2C1CC(OCP(=O)(O)O)C(O)C1F` (centres unmarked) [drawing 67]: the IC50 was 10 to 25 µg/mL (≈ 28.8 to 72 µM) in [5] (Table IV, enantiomeric series (1R, 4S), read-out: HSV-1 in vitro antiviral data (ID50)); over 100 µg/mL in series [6] (Human betaherpesvirus 5, Table IV, enantiomeric series (1R, 4S), read-out: HCMV in vitro antiviral data (ID50)); 10 to 25 µg/mL (≈ 28.8 to 72 µM) in [7] (Table IV, enantiomeric series (1R, 4S), read-out: HSV-2 in vitro antiviral data (ID50)); 5 to 10 µg/mL (≈ 14.4 to 28.8 µM) in series [8] (Human alphaherpesvirus 3, Table IV, enantiomeric series (1R, 4S), read-out: VZV in vitro antiviral data (ID50)).
